Experimental data as given in US20250179062A1, “CRYSTALLINE FORMS OF A PYRROLOPYRIDINE-ANILINE COMPOUND” (NFLECTION THERAPEUTICS, INC., priority 2021, published 2025).
Entries after “also recorded” stand apart in the source; their conditions may differ. Where two headings read alike, the source gives them in different places.

Experiments:
[1] = Dynamic vapor sorption (DVS); format: physicochemical
Experimental: Automated vapor sorption (VS) data were collected on a Surface Measurement System DVS Intrinsic instrument. Samples were not dried prior to analysis. Sorption and desorption data were collected over a range from 5% to 95% RH at 10% RH increments under a nitrogen purge. The equilibrium criterion used for analysis was less than 0.0100% weight change in 5 minutes with a maximum equilibration time of 3 hours. Data were not corrected for the initial moisture content of the samples. Post-analysis sample was submitted for XRPD analysis.

[2] = Binary competitive interconversion slurry experiments; format: physicochemical; conditions: between room temperature and 50° C.
Experimental: Alternatively, interconversion experiments were performed to determine the thermodynamic relationship between polymorphs. […] Clarendon Press, Oxford, 2006; and Polymorphism in Pharmaceutical Solids. Brittain, Harry G. ed. Marcek Dekker, Inc. New York. 1999]. […] The choice of solvent affects the kinetics of polymorph conversion and not the thermodynamic relationship between polymorphic forms [Gu, C H., Young, V. Jr., Grant, D J. J. Pharm. Sci. 2001, 90 (11): 1878-1890].
Slurries were prepared at ambient and 50° C. using binary mixtures of Forms A/F, A/E, and E/F. Saturated solutions of the compound of formula (I) were generated in EtOAc or ACN at RT or 50° C. The solutions were filtered and approximately equivalent quantities of two of the polymorphs were added to the solutions. The samples were slurried for several days at the given temperature and the solids were collected by positive pressure filtration, or centrifugation/decantation. The solids were harvested and analyzed by an XRPD.

[3] = Physical stability of crystalline forms (XRPD after stress); format: physicochemical
Experimental: Physical stability of Form A was investigated.
Physical stability of Form F was investigated.
Physical stability of Form B was investigated.
Physical stability of Form C was investigated.
Because the solids of Form H were originally isolated damp with excess MeOH (see Example 7), an attempt to remove the excess solvent under vacuum (i.e., room temperature for 2 days) was performed.

[4] = Approximate solubility, visually estimated by solvent aliquot addition; format: physicochemical; conditions: ambient temperature; for solubility: thermodynamic from solid
Experimental: A lot of the compound of formula (I) containing a mixture of Forms A and B was used for this study. Measured aliquots of a variety of solvents were added to weighed amounts of the material with sonication until the solution appeared clear or the maximum volume of the vial was reached. Solubility was calculated based on the total solvent used to give a solution. […] Values are rounded to the nearest whole number. […] If dissolution occurred as determined by the visual assessment after the addition of the first aliquot, the value is reported as “>”.

[5] = clinical trials, systemic MEK inhibitor; cited from earlier work
[6] = Physical stability of crystalline forms (XRPD after stress); format: physicochemical; conditions: higher temperature (e.g., 178° C.)
[7] = 90% RH at ambient temperature over 7 days

Cn1c(Nc2ccc(I)cc2F)c(C(=O)NOCCO)c2cccnc21 [Form A]
Hygroscopicity term ([1]; 5-95% RH): limited hygroscopicity
post-DVS XRPD form ([1]; solid after DVS cycle): Form A
Relative thermodynamic stability of anhydrous forms [2]: most thermodynamically stable form; also recorded: more stable relative to Form E or F
Physical stability [3, 7]: stable
Physical stability ([3]; one (1) day at ambient temperature under vacuum): stable

Cn1c(Nc2ccc(I)cc2F)c(C(=O)NOCCO)c2cccnc21 [Form E]
Relative thermodynamic stability of anhydrous forms [2]: more thermodynamically stable than Form F but less stable than Form A; also recorded: more stable relative to Form F

Cn1c(Nc2ccc(I)cc2F)c(C(=O)NOCCO)c2cccnc21 [Form H]
Physical stability ([3]; under vacuum, room temperature for 2 days, damp solids with excess MeOH): disordered mixture of Form H and Form A

Cn1c(Nc2ccc(I)cc2F)c(C(=O)NOCCO)c2cccnc21 [Compound of Formula (I)]
solubility ([4]; aqueous with cosolvent or surfactant or cyclodextrin, 1:1 THF/H2O (v/v) (aw = 1.04), lot containing mixture of Forms A and B, read-out: Solubility): 11000 µg/mL
solubility ([4]; aqueous with cosolvent or surfactant or cyclodextrin, 3:1 acetone/H2O (v/v) (aw = 0.85), lot containing mixture of Forms A and B, read-out: Solubility): 5000 µg/mL
Solubility term ([4]; in heptane, H2O, and toluene): low solubility
solubility ([4]; organic solvent or mixture, ACN, lot containing mixture of Forms A and B, read-out: Solubility): 2000 µg/mL
solubility ([4]; organic solvent or mixture, DCM, lot containing mixture of Forms A and B, read-out: Solubility): 6000 µg/mL
solubility ([4]; organic solvent or mixture, EtOAc, lot containing mixture of Forms A and B, read-out: Solubility): 3000 µg/mL
solubility ([4]; organic solvent or mixture, EtOH, lot containing mixture of Forms A and B, read-out: Solubility): 3000 µg/mL
solubility ([4]; organic solvent or mixture, MeOH, lot containing mixture of Forms A and B, read-out: Solubility): 11000 µg/mL
solubility ([4]; organic solvent or mixture, THF, lot containing mixture of Forms A and B, read-out: Solubility): 29000 µg/mL
solubility ([4]; organic solvent or mixture, acetone, lot containing mixture of Forms A and B, read-out: Solubility): 8000 µg/mL
solubility ([4]; organic solvent or mixture, heptane, lot containing mixture of Forms A and B, read-out: Solubility): < 1000 µg/mL
solubility ([4]; organic solvent or mixture, in acetone, ACN, DCM, EtOAc, EtOH, MeOH, 3:1 v/v acetone/H2O, and 1:1 v/v THF/H2O, read-out: Solubility term): 1000 to 20000 µg/mL
solubility ([4]; organic solvent or mixture, toluene, lot containing mixture of Forms A and B, read-out: Solubility): < 1000 µg/mL
solubility ([4]; water, H2O, lot containing mixture of Forms A and B, read-out: Solubility): < 1000 µg/mL

Cn1c(Nc2ccc(I)cc2F)c(C(=O)NOCCO)c2cccnc21 [Form F]
Relative thermodynamic stability of anhydrous forms [2]: least thermodynamically stable form
Physical stability [3, 7]: stable
Physical stability ([3]; under vacuum at room temperature for 5 days): stable

O=C(NOC[C@H](O)CO)c1ccc(F)c(F)c1Nc1ccc(I)cc1F [PD0325901]
Side effects [5]: one or more neurological side effects associated with ataxia, confusion, and syncope; also recorded: neurological side effects associated with ataxia, confusion, and syncope

Cn1c(Nc2ccc(I)cc2F)c(C(=O)NOCCO)c2cccnc21 [Form C]
Physical stability ([3]; about 42° C. for one day or about 45° C. for three days, under vacuum): slightly disordered

Cn1c(Nc2ccc(I)cc2F)c(C(=O)NOCCO)c2cccnc21 [Form B]
Form conversion by in situ variable temperature XRPD (vtXRPD) [6]: converts/crystallizes to anhydrous Form E
Physical stability ([3]; exposure to 45° C. (elevated temperature) under vacuum): disordered; also recorded: slightly disordered XRPD pattern with additional unidentified peaks
Physical stability ([3]; under vacuum at ambient temperature over 2 days): stable
